Measured values from patent US20260226068A1, “IMIDAZOTRIAZINE IL-17A MODULATORS AND USES THEREOF” (DICE ALPHA, INC., priority 2023, published 2026).

Experiments:
[1] = target: T1, IL-17A/A (Homo sapiens, UniProt Q16552); assay: IL-17A/A HEK-Blue cell assay (SEAP reporter); format: cell-based; settings: HEK-Blue IL-17A reporter cells, IL17A/A 5 ng/mL, 20 hours, SEAP read at A630; read-out: HEK-Blue IL17AA (IC50 for IL-17A/A inhibition)
T1 construct: purchased Genscript Z03228
T1 sequence (Q16552 24-155): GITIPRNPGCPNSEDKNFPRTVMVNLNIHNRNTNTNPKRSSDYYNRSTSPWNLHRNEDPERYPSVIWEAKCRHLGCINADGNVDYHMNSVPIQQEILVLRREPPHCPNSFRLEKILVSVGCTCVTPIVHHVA
Protocol: (§1) The HEK-Blue IL-17A reporter cell line (Fisher #NC 1408637) was used for cell-based IL-17A/A inhibition assays. Cells were grown and prepared for assays according to the manufacturer's instructions. This cell line consists of HEK 293 cells that were designed to expressed IL-17RA, IL-17RC, and the Act1 adapter molecule, the combination of which, when stimulated by IL-17A/A or IL17A/F activates a […] promoter and drives expression of the recombinant Secreted Alkaline Phosphatase (SEAP) gene. Media from the cells is then added to a development reagent (Quanti-Blue Substrate, Fisher #NC971 1613), and read at A630.
(§2) Compounds were dispensed in DMSO to an empty clear 384-well tissue culture plate in a titration ranging from 10 μM to 27 pM, with DMSO added to every well to a final concentration of […]. Cells were then added to the plate (45 μL/well at a concentration of 280,000 cells/mL). IL17A/A (Genscript #Z03228) or IL17A/F (R&D Systems) was added to the plate to a final concentration of 5 ng/mL and a final well volume of 50 μL. The cells, compound, and IL-17A/A or IL17A/F were then incubated for 20 hours before media was removed for SEAP analysis. The resulting inhibition curve was then analyzed using Dotmatics' integrated 4-parameter fit screening protocol to generate IC50 values.
(§3) Table 2 includes IC50 values for IL-17A/A and IL-17A/F inhibition of selected compounds; with compounds having a IC50 of A<100 nM; B 100-1000 nM; and C>1000 nM.

[2] = target: T2, IL-17A/F (Homo sapiens, UniProt Q16552+Q96PD4); assay: IL-17A/F HEK-Blue cell assay (SEAP reporter); format: cell-based; settings: HEK-Blue IL-17A reporter cells, IL17A/F 5 ng/mL, 20 hours, SEAP read at A630; read-out: HEK-Blue IL17AF (IC50 for IL-17A/F inhibition)
T2 construct: purchased R&D Systems
T2 sequence (Q16552 24-155): T1 sequence (Q16552 24-155)
T2 sequence (Q96PD4 31-163): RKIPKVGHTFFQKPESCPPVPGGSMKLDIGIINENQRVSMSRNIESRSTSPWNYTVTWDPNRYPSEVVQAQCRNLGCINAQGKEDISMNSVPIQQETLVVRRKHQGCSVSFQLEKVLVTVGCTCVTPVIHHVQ
Protocol: as §1, §2, §3

SMILES | IC50 [1] [nM] | IC50 [2] [nM]
CCn1nccc1C(=O)N[C@H](c1cn2nc(C[C@H]3C[C@@H](C(F)(F)F)CNC3=O)c(C3CCOC3)nc2n1)[C@@H]1CCCC(F)(F)C1 (single isomer, unassigned) [Compound 73] | < 100 | 100 to 1000
O=C(N[C@H](c1cn2nc(C[C@H]3C[C@@H](C(F)(F)F)CNC3=O)cnc2n1)C1CCC(F)(F)CC1)c1nonc1[C@H]1CC1(F)F (single isomer, unassigned) [Compound 76] | 100 to 1000 | > 1000
O=C(N[C@H](c1cn2nc(C[C@H]3C[C@@H](C(F)(F)F)CNC3=O)cnc2n1)C1CCC(F)(F)CC1)c1nonc1[C@@H]1CC1(F)F (single isomer, unassigned) [Compound 77] | < 100 | > 1000
CC(C)n1nccc1C(=O)N[C@H](c1cn2nc(CC3C[C@@H](C(F)(F)F)CNC3=O)c(N3CCOCC3)nc2n1)C1CCC(F)(F)CC1 (single isomer, unassigned) [Compound 79] | < 100 | 100 to 1000
CC(C)n1nccc1C(=O)N[C@H](c1cn2nc(CC3C[C@@H](C(F)(F)F)CNC3=O)c(N3CCOCC3)nc2n1)C1CCC(F)(F)CC1 (single isomer, unassigned) [Compound 80] | < 100 | > 1000
CCn1nccc1C(=O)N[C@H](c1cn2nc(CC3C[C@@H](C(F)(F)F)CNC3=O)c(N3CC4CC(C3)O4)nc2n1)C1CCC(F)(F)CC1 (single isomer, unassigned) [Compound 81] | < 100 | 100 to 1000
CCn1nccc1C(=O)N[C@H](c1cn2nc(CC3C[C@@H](C(F)(F)F)CNC3=O)c(N3CC4CC(C3)O4)nc2n1)C1CCC(F)(F)CC1 (single isomer, unassigned) [Compound 82] | < 100 | > 1000
CCn1nccc1C(=O)N[C@H](c1cn2nc(CC3C[C@@H](C(F)(F)F)CNC3=O)c(N3C[C@H]4CC[C@@H](C3)O4)nc2n1)C1CCC(F)(F)CC1 (single isomer, unassigned) [Compound 83] | < 100 | 100 to 1000
CCn1nccc1C(=O)N[C@H](c1cn2nc(CC3C[C@@H](C(F)(F)F)CNC3=O)c(N3C[C@H]4CC[C@@H](C3)O4)nc2n1)C1CCC(F)(F)CC1 (single isomer, unassigned) [Compound 84] | < 100 | 100 to 1000
CCn1nccc1C(=O)N[C@H](c1cn2nc(CC3C[C@@H](C(F)(F)F)CNC3=O)c(N3C[C@H]4C[C@@H]3CO4)nc2n1)C1CCC(F)(F)CC1 (single isomer, unassigned) [Compound 85] | 100 to 1000 | > 1000
CCn1nccc1C(=O)N[C@H](c1cn2nc(CC3C[C@@H](C(F)(F)F)CNC3=O)c(N3C[C@H]4C[C@@H]3CO4)nc2n1)C1CCC(F)(F)CC1 (single isomer, unassigned) [Compound 86] | < 100 | 100 to 1000

Next, values leading:

IC50 [1] [nM] | IC50 [2] [nM] | SMILES
< 100 | > 1000 | CCn1nccc1C(=O)N[C@H](c1cn2nc(CC3CC(F)(F)CNC3=O)c(N3CCOCC3)nc2n1)C1CCC(F)(F)CC1 (single isomer, unassigned) [Compound 64]
< 100 | > 1000 | CCn1nccc1C(=O)N[C@H](c1cn2nc(CC3CC(F)(F)CNC3=O)c(N3CCOCC3)nc2n1)C1CCC(F)(F)CC1 (single isomer, unassigned) [Compound 65]
< 100 | < 100 | CCn1nccc1C(=O)N[C@H](c1cn2nc(C[C@H]3C[C@@H](C(F)(F)F)CNC3=O)c(C3CCCOC3)nc2n1)[C@H]1CCCC(F)(F)C1 (single isomer, unassigned) [Compound 68]
< 100 | 100 to 1000 | CCn1nccc1C(=O)N[C@H](c1cn2nc(C[C@H]3C[C@@H](C(F)(F)F)CNC3=O)c(C3CCCOC3)nc2n1)[C@@H]1CCCC(F)(F)C1 (single isomer, unassigned) [Compound 71]
< 100 | 100 to 1000 | CCn1nccc1C(=O)N[C@H](c1cn2nc(C[C@H]3C[C@@H](C(F)(F)F)CNC3=O)c(C3CCOC3)nc2n1)[C@@H]1CCCC(F)(F)C1 (single isomer, unassigned) [Compound 72]
